System: up to 32 different microorganisms
Assay: in vitro antibacterial activity (MIC), agar dilution on Brain Heart Infusion (BHI) agar with Steers replicator
Assay type: cell-based
Details: unit assumed
Protocol: Representative compounds of the present invention were assayed in vitro for antibacterial activity as follows: Twelve petri dishes containing successive aqueous dilutions of the test compound mixed with 10 mL of sterilized Brain Heart Infusion (BHI) agar (Difco 0148-01-5) were prepared. Each plate was inoculated with 1:100 (or 1:10 for slow-growing strains, such as Micrococcus and Streptococcus) dilutions of up to 32 different microorganisms, using a Steers replicator block. The inoculated plates were incubated at 35°-37° C. for 20 to 24 hours. In addition, a control plate, using BHI agar containing no test compound, was prepared and incubated at the beginning and end of each test.
An additional plate containing a compound having known susceptibility patterns for the organisms being tested and belonging to the same antibiotic class as the test compound was also prepared and incubated as a further control, as well as to provide test-to-test comparability. Erythromycin A was used for this purpose.
After incubation, each plate was visually inspected. The minimum inhibitory concentration (MIC) was defined as the lowest concentration of drug yielding no growth, a slight haze, or sparsely isolated colonies on the inoculum spot as compared to the growth control.

CC[C@H]1OC(=O)[C@H](C)C(=O)[C@H](C)[C@@H](O[C@@H]2O[C@H](C)C[C@H](N(C)C)[C@H]2O)[C@@](C)(OCC=NOCc2ccc([N+](=O)[O-])cc2)C[C@@H](C)C(=O)[C@H](C)[C@H]2NC(=O)O[C@@]21C [Example 230, Compound of Formula (IX): L is CO, T is NH, R is —CH2CH═NOCH2(4-NO2-phenyl)] showed an MIC (organism code AA) of 0.1 µg/mL, an MIC (organism code BB) of 0.1 µg/mL and an MIC (organism code CC) of over 100 µg/mL. The MIC (organism code DD) was 0.1 µg/mL, the MIC (organism code EE) was 0.1 µg/mL and the MIC (organism code FF) was 0.2 µg/mL. The MIC (organism code GG) was over 100 µg/mL, the MIC (organism code HH) was 0.1 µg/mL and the MIC (organism code II) was 0.05 µg/mL. The MIC (organism code JJ) was at most 0.005 µg/mL, the MIC (organism code KK) was at most 0.005 µg/mL and the MIC (organism code LL) was at most 0.005 µg/mL. For the same compound, the MIC (organism code MM) was over 100 µg/mL, the MIC (organism code NN) was 0.05 µg/mL and the MIC (organism code OO) was 0.05 µg/mL. It also gave an MIC (organism code PP) of 0.2 µg/mL, an MIC (organism code QQ) of 100 µg/mL and an MIC (organism code RR) of 0.39 µg/mL. The MIC (organism code SS) was over 100 µg/mL, the MIC (organism code TT) was over 100 µg/mL and the MIC (organism code UU) was 0.78 µg/mL. For the same compound, the MIC (organism code VV) was 0.05 µg/mL, the MIC (organism code WW) was 2 µg/mL and the MIC (organism code XX) was 0.03 µg/mL. For the same compound, the MIC (organism code YY) was 0.015 µg/mL, the MIC (organism code ZZ) was 128 µg/mL and the MIC (organism code ZZA) was 0.25 µg/mL.
Work on CC[C@H]1OC(=O)[C@H](C)C(=O)[C@H](C)[C@@H](O[C@@H]2O[C@H](C)C[C@H](N(C)C)[C@H]2O)[C@@](C)(OCCNCc2cnc3ccccc3c2)C[C@@H](C)C(=O)[C@H](C)[C@H]2NC(=O)O[C@@]21C [Example 226, Compound of Formula (IX): L is CO, T is NH, R is —CH2CH2NHCH2(3-quinolyl)] yielded an MIC (organism code AA) of 0.1 µg/mL, an MIC (organism code BB) of 0.1 µg/mL and an MIC (organism code CC) of over 100 µg/mL. For the same compound, the MIC (organism code DD) was 0.1 µg/mL, the MIC (organism code EE) was 0.1 µg/mL and the MIC (organism code FF) was 0.1 µg/mL. The MIC (organism code GG) was over 100 µg/mL, the MIC (organism code HH) was 0.1 µg/mL and the MIC (organism code II) was 0.05 µg/mL. The MIC (organism code JJ) was 0.01 µg/mL, the MIC (organism code KK) was 0.02 µg/mL and the MIC (organism code LL) was 0.01 µg/mL. The MIC (organism code MM) was 6.2 µg/mL, the MIC (organism code NN) was 0.39 µg/mL and the MIC (organism code OO) was 0.02 µg/mL. It also gave an MIC (organism code PP) of 0.1 µg/mL, an MIC (organism code QQ) of 6.2 µg/mL and an MIC (organism code RR) of 0.2 µg/mL. The MIC (organism code SS) was 12.5 µg/mL, the MIC (organism code TT) was over 100 µg/mL and the MIC (organism code UU) was 9.78 µg/mL. It also gave an MIC (organism code VV) of 0.05 µg/mL, an MIC (organism code WW) of 2 µg/mL and an MIC (organism code XX) of 0.03 µg/mL. For the same compound, the MIC (organism code YY) was 0.03 µg/mL, the MIC (organism code ZZ) was over 128 µg/mL and the MIC (organism code ZZA) was 2 µg/mL.
For CCC1OC(=O)C(C)C(=O)C(C)C(OC2OC(C)CC(N(C)C)C2O)C(C)(OCC=Cc2ccc3ncc(-c4cccs4)cc3c2)CC(C)C(=O)C(C)C2NC(=O)OC12C (stereo not drawn) [Example 275, Compound of Formula (IX): L is CO, T is NH2, R is —CH2CH═CH-(3-(2-thiphenyl)-6-quinolyl)], the MIC (organism code AA) was 0.2 µg/mL, the MIC (organism code BB) was 0.2 µg/mL and the MIC (organism code CC) was over 100 µg/mL. The MIC (organism code DD) was 0.2 µg/mL, the MIC (organism code EE) was 0.2 µg/mL and the MIC (organism code FF) was 0.2 µg/mL. For the same compound, the MIC (organism code GG) was over 100 µg/mL, the MIC (organism code HH) was 0.2 µg/mL and the MIC (organism code II) was 0.1 µg/mL. It also gave an MIC (organism code JJ) of 0.01 µg/mL, an MIC (organism code KK) of 0.05 µg/mL and an MIC (organism code LL) of 0.02 µg/mL. For the same compound, the MIC (organism code MM) was 12.5 µg/mL, the MIC (organism code NN) was 0.2 µg/mL and the MIC (organism code OO) was 0.02 µg/mL. The MIC (organism code PP) was 0.2 µg/mL, the MIC (organism code QQ) was over 100 µg/mL and the MIC (organism code RR) was 0.78 µg/mL. It also gave an MIC (organism code SS) of over 100 µg/mL, an MIC (organism code TT) of over 100 µg/mL and an MIC (organism code UU) of 0.39 µg/mL. For the same compound, the MIC (organism code VV) was 0.2 µg/mL, the MIC (organism code WW) was 8 µg/mL and the MIC (organism code XX) was 0.03 µg/mL. The MIC (organism code YY) was 0.03 µg/mL, the MIC (organism code ZZ) was 4 µg/mL and the MIC (organism code ZZA) was 0.5 µg/mL.
In the case of CC[C@H]1OC(=O)[C@H](C)C(=O)[C@H](C)[C@@H](O[C@@H]2O[C@H](C)C[C@H](N(C)C)[C@H]2O)[C@@](C)(OCC=Cc2ccc(OC)cc2)C[C@@H](C)C(=O)[C@H](C)[C@@H](O)[C@]1(C)O [Example 16, Compound of Formula (VIII): X is O, R is —CH2CH═CH-(4-methoxyphenyl)], the MIC (Candida albicans CCH 442 (code TT)) is reported as over 100 µg/mL, the MIC (Enterococcus faecism ATCC 8043 (code II)) is reported as 0.78 µg/mL and the MIC (Escherichia coli DC-2 (code SS)) is reported as over 100 µg/mL. It also gave an MIC (Escherichia coli JUHL (code QQ)) of over 100 µg/mL, an MIC (Escherichia coli SS (code RR)) of 6.2 µg/mL and an MIC (Haemophilis influenzae DILL AMP R (code WW)) of 128 µg/mL. For the same compound, the MIC (Micrococcus luteus ATCC 4698 (code PP)) was 0.78 µg/mL, the MIC (Micrococcus luteus ATCC 9341 (code OO)) was 0.2 µg/mL and the MIC (Mycobacterium smegmatis ATCC 114 (code UU)) was 3.2 µg/mL. For the same compound, the MIC (Nocardia Asteroides ATCC9970 (code VV)) was 1.56 µg/mL, the MIC (Staphylococcus aureus 1775 (code GG)) was over 100 µg/mL and the MIC (Staphylococcus aureus A5177 (code BB)) was 1.56 µg/mL. The MIC (Staphylococcus aureus A-5278 (code CC)) was over 100 µg/mL, the MIC (Staphylococcus aureus ATCC 6538P (code AA)) was 1.56 µg/mL and the MIC (Staphylococcus aureus CMX 553 (code FF)) was 1.56 µg/mL. For the same compound, the MIC (Staphylococcus aureus CMX 642A (code DD)) was 1.56 µg/mL, the MIC (Staphylococcus aureus NCTC10649M (code EE)) was 1.56 µg/mL and the MIC (Staphylococcus epidermidis 3519 (code HH)) was 1.56 µg/mL. It also gave an MIC (Streptococcus Pneumonia 5649 (code ZZA)) of 2 µg/mL, an MIC (Streptococcus Pneumonia 5979 (code ZZ)) of 128 µg/mL and an MIC (Streptococcus Pneumonia ATCC6303 (code XX)) of 1 µg/mL. The MIC (Streptococcus Pneumonia GYR 1171 (code YY)) was 0.25 µg/mL, the MIC (Streptococcus agalactiae CMX 508 (code KK)) was 0.39 µg/mL and the MIC (Streptococcus bovis A-5169 (code JJ)) was 0.2 µg/mL. For the same compound, the MIC (Streptococcus pyogenes 930 (code MM)) was over 100 µg/mL, the MIC (Streptococcus pyogenes EES61 (code LL)) was 0.39 µg/mL and the MIC (Streptococcus pyogenes PIU 2548 (code NN)) was 0.78 µg/mL.

Reference: patent USRE39591E1, “6-O-substituted ketolides having antibacterial activity” (Abbott Laboratories, priority 1996, dated 2007)
